Reference: patent US20220125754A1, “TREATING THE CAUSATIVE AGENT IN ADHESIOGENESIS” (Helmholtz Zentrum München - Deutsches Forschungszentrum Für …, priority 2019, published 2022)

What was measured:
[1] = test system: caspase3 activity in heliocytes; test: Caspase3 activity reporter assay (nanoluciferase-caspase3 cleavage site-degradation peptide); format: cell-based, human; conditions: stressed mesothelial cells (heliocytes), compared to control (FIG. 12)
Procedure: Then, determination of caspase3 activity in heliocytes was performed. Cells stably expressing a nanoluciferase-caspase3-cleaving-site-degredation-peptide (FIG. 12) were grown on beads seeded onto a Met-5A monolayer. After 24 h nanoluciferase activity was determined. The degradation peptide leads to constitutive degradation of nanoluciferase, active caspase3 cleaves the protein linker, thus removing the degradation signal, leading to increased nanoluciferase amount.
(§1) In order to test listed inhibitor treatments for potential unwanted side effects, in vitro as well as in vivo apoptosis readouts were performed. […] Next, fragmented DNA amounts in the in vitro adhesions were determined, staurosporine representing as the positive control. […] Apoptosis signaling cascades dependent on caspase3 protease activity. To screen caspase3 activity in a high throughput manner, a new functional screening assay was developed. The assay is based on a nanoluciferase fused to a degradation signaling peptide interlinked with caspase3 cleavage sites. Once activated, caspase3 cleaves protein linker, removes the degradation signal and prevents proteasomal digestion of the nanoluciferase.

adhesion formation = test: Murine adhesion model (total adhesion score); format: in vivo, mice; conditions: for adhesion formation (adhesion score): daily intraperitoneal injection, day 5 after injury (FIG. 9)
Procedure: Small molecule inhibitors were solubilized in sterile 2% hydroxyethyl-cellulose (Sigma Aldrich, #09368). Compounds were being added immediately prior to surgery, and were derived from a 100-150 mM stock solution to minimize the final DMSO content. The final solution (200 μL per 30 g body weight) was sandwiched between the visceral and parietal layer of the injured cecum and peritoneum respectively.
Mice were anesthetized by an intraperitoneal injection of a Medetomidin (500 μg/kg), Midazolam (5 mg/kg) and Fentanyl (50 μg/kg) cocktail, hereafter referred to as MMF. Monitoring anesthetic depth was assessed by toe reflex. Eyes were covered with Bepanthen to avoid dehydration, and the abdomen was shaved and disinfected with betadine and sterile phosphate buffered saline (PBS). Animals were kept on their backs on a heating plate at 37° C. A midline laparotomy (1-1.5 cm) was performed through the skin and peritoneum. Four hooks, positioned around the incision and fixed to a retractor and magnetic base plate, allowed for clear access to the abdominal cavity. A small surgical brush was used to gently abrade the peritoneal surface and apposing cecal surface. Two surgical knots using 4-0 silk sutures (Ethicon) were then placed through the serosal surface of the peritoneum. A cotton swab was used to gently apply a dab of talc powder (Sigma Aldrich, #243604) onto the injured surfaces. Before closure of the incision, buprenorphine (0.1 mg/kg) was pipetted in the abdomen to allow for initial post-surgical analgesia. For long-term analgesia, metamizol (Novalgin, 200 mg/kg) was provided through daily injection. The peritoneum and skin were closed with two separate 4-0 silk sutures (Ethicon). Upon closure of the incision, mice were woken up by antagonizing the MMF solution through a subcutaneous cocktail injection of Atipamezol (1 mg/kg) and Flumazenil (0.25 mg/kg). Mice were allowed to recover on a heating pad, after which they were housed together (females) or individually (males), and followed for 1-5 days. Adhesions were scored using gross morphological features that indicated adhesion development. Five individual adhesion features were scored (see table below) that together provided a cumulative value that determined the total adhesion score. With this system, complete absence of adhesions were scored as 0, whereas the maximum adhesion score was 15.
Mice were anesthetized by an intraperitoneal injection of a Medetomidin (500 μg/kg), Midazolam (5 mg/kg) and Fentanyl (50 μg/kg) cocktail, hereafter referred to as MMF. Monitoring anesthetic depth was assessed by toe reflex. Eyes were covered with Bepanthen to avoid dehydration, and the abdomen was shaved and disinfected with betadine and sterile phosphate buffered saline (PBS). Animals were kept on their backs on a heating plate at 37° C. A midline laparotomy (1-1.5 cm) was performed through the skin and peritoneum. Four hooks, positioned around the incision and fixed to a retractor and magnetic base plate, allowed for clear access to the abdominal cavity. A small surgical brush was used to gently abrade the peritoneal surface and apposing cecal surface. Two surgical knots using 4-0 silk sutures (Ethicon) were then placed through the serosal surface of the peritoneum. A cotton swab was used to gently apply a dab of talc powder (Sigma Aldrich, #243604) onto the injured surfaces. Before closure of the incision, buprenorphine (0.1 mg/kg) was pipetted in the abdomen to allow for initial post-surgical analgesia. […]

[2] = test system: heliocytes (stressed Met-5A mesothelial cells); test: Protrusion development in desiccation-stressed Met-5A cells expressing membranous GFP (epi-fluorescence); format: cell-based, human; conditions: 10 μM, 24 hours, desiccation stress (FIG. 6B)
Procedure: (§2) FIG. 6: Single-cell transcriptomics of heliocytes. A) Overview of the Dropseq workflow. B) Epi-fluorescent representative images of Met-5A cells stably expressing membranous GFP, stressed with desiccation and treated with small-molecule compounds for 24 hours (10 μM). Scale bar, 10 μm. C) Desiccation shock induces small-molecule sensitive carrier-carrier aggregation as assessed with a high-throughput nanoluciferase assay. ID) Adhesion propagation assay (see methods) with nanoluciferase expressing Met-5A cells after treatment with small molecule inhibitors for 24 hours (10 μM). E) Cre-exchange transmission assay (see methods) with Cre-recombinase and Cre-dependent nanoluciferase expressing Met-5A cells after treatment with small molecule inhibitors for 24 hours (10 μM).
Met-5A cells were seeded on gelatin (Sigma Aldrich, #G1393) coated dishes. Once a confluent monolayer was established, stressed cell-covered beads were seeded onto the monolayer. For the inhibitory experiments, if not indicated otherwise, monolayer cells were pretreated with the indicated compound for 30 minutes in culture medium. Afterwards the adhesion assay was performed as described above.
Mesothelial protrusion analysis was performed using the Advanced weka segmentation Fiji plugin^37. It utilizes a collection of machine learning algorithms for segmentation. Specifically, pixel-based segmentation is based on image features annotated to different classes. Pixel samples were free drawn and assigned to respective classes, e.g. ‘filopodia’, ‘cell body’, or ‘background’. Subsequent rounds of training were performed to allot respective pixels and structures to its corresponding classes for improved segmentation. Training features, such as ‘Gaussian blur’, ‘Sobel filter’, ‘Hessian’, ‘Difference of Gaussians’ and ‘Membrane projections’ were applied along with default classifier ‘Fast Random Forest’. Other settings were kept as default (membrane thickness 1, membrane patch size 19, minimum sigma 1.0, and maximum sigma 16.0). The trained classifier and data were saved for analysis of other ‘stressed’ and ‘unstressed’ mesothelial datasets. A macro was written to automate the above steps for other datasets with pause for 5 seconds (wait(5000) function) after each step for smooth processing. Images from the segmented classes were extracted and subjected to post processing.
In order to identify underlying mechanisms of heliocyte transformation, differential gene expression analysis was performed using a likelihood-ratio test for single cell gene expression data^21. This identified 1644 genes that were regulated in stressed cells at one or more time points (FDR<10%). […]

Met-5A cells = test: Adhesion propagation assay (nanoluciferase expressing Met-5A cells); format: cell-based, human; conditions: for transmissibility: 10 μM, 24 hours, adhesion propagation assay (FIG. 6D) and Cre-exchange transmission assay (FIG. 6E)
Procedure: […] After 24 hours, unbound carriers were washed away and nanoluciferase luminescence was measured. This represents the initial stress-dependent transmitted adhesion.
[…] Carriers were then separated from the monolayer and placed on an unstressed Met-5A wild-type monolayer. After 24 hours, unbound beads were washed away and nanoluciferase luminescence was measured. This represents the first stress-independent transmitted adhesion.
Carriers were then separated from the monolayer and placed on unstressed cell-covered beads stably expressing nanoluciferase (AF1) for 3 hours. Carriers were then isolated once more and placed on an unstressed Met-5A monolayer stably expressing the dTomato-P2A-NanoLuciferase reporter construct (AF34). Unbound beads were then washed away and nanoluciferase luminescence was measured after 24 hours. This represents the second stress-independent transmitted adhesion.
This procedure was continued similarly for the consecutive third and fourth transmissions.
First, repeated consecutive mixing experiments were performed with nanoluciferase-expressing Met-5A cells to study the extent of adhesion propagation. When unstressed cells were exposed to heliocytes, and then separated, they were fully able to generate adhesions even though they had not themselves experienced stress (FIG. 3F). Pharmacological inhibition of HIF-1α signaling has been one of the few proposed intervention routes to reduce adhesion burden^16, thus it was tested to see whether the HIF-1α inhibitor echinomycin could inhibit transmissibility. […] Transmission occurred rapidly, as unstressed cells only had to be exposed to heliocytes for a total of 90 min for successful transmission to occur and allow them to form adhesions themselves (FIG. 3H). Second, two additional cell lines were generated, one expressing Cre recombinase and one expressing a stop codon flanked by two LoxP sites followed by a dTomato-P2A-Nanoluciferase. In this transmission assay, Cre recombinase only drives dTomato-P2A-Nanoluc expression if extensive cytoplasmic mixing occurs that allows Cre recombinase protein to be transferred and shuttled into the nucleus of the dTomato-P2A-Nanoluc cells. Indeed, extensive dTomato fluorescence was observed 3 hours after unstressed carriers were seeded onto a stressed monolayer (FIG. 3I). Under consecutive mixing conditions, like the propagation set-up, naive cells receiving cellular contents from heliocytes could in turn transmit to other cells independently from HIF-1α signaling, for a total of three rounds after the original stress stimulus (FIGS. 3J and K). Because cytoskeletal networks and membrane shuffling are extremely sensitive to shifts in available calcium^17, it was asked whether calcium signaling underlies heliocyte formation and filipodial extensions, using two independent approaches.

[3] = test system: Met-5A cells on microcarrier beads; test: High-throughput carrier-carrier adhesion assay (nanoluciferase); format: cell-based, human; conditions: desiccation shock, high-throughput nanoluciferase assay (FIG. 6C)
Procedure: as §2
Cells were incubated with ice cold luciferase lysis buffer (25 mM Tris-HCL pH 7.8, 1% Triton X-100, 15 mM MgSO4, 4 mM EGTA, 1 mM DTT) for 20 minutes. Both assays were performed in a 96-wells plate format. Luciferase firefly substrate was dissolved in PBS, and consisted of 20 mM Tricine, 2.67 mM MgSO4, 0.1 mM EDTA, 33.3 mM DTT, 0.52 mM ATP, 0.27 mM Acetyl-CoA, 5 mM NaOH, […], and 0.47 mM D-Luciferin (Carl Roth, #CN24.3). For nanoluciferase, the substrate solution included 47.2 μM Coelenterazine (Carl Roth, #4094.4). Luminescence was detected after 5 minutes of substrate and lysate co-incubation using the TriStar^2 LB 942 Modular Multimode microplate reader (Berthold Technologies).
Met-5A cells were seeded together with Cytodex® 3 microcarrier beads (Sigma Aldrich, #03275) in a ratio of 500:1, and allowed to adhere and grow for 5 days. Cell-covered beads were then eluted from the culture dish using a 25 mL stripette. The resulting solution was strained through a 100 μm cell strainer (Corning, #352360). […] was induced by placing the bead-containing cell strainer under a running cell culture flow hood for 15 minutes. Afterwards, beads were eluted with assay medium and placed in a cultivation dish coated with HEMA silicate solution (Sigma Aldrich, #P3932), to prevent cell attachment. After indicated time points, carrier complexes were collected by filtering them through a 200 μm cell strainer, which allows individual carriers to pass, while trapping carrier complexes. Adhesions were measured in a high throughput manner through the use of Met-5A cells stably expressing luciferase (AF23) or nanoluciferase (AF1) using Integra Viaflo pipettes.

[4] = test system: stressed mesothelial cells (heliocytes); test: Apoptosis assay: fragmented DNA (Cell Death Detection ELISA) in in vitro bead assay; format: cell-based, human; conditions: 10 μM, stressed mesothelial cells (FIG. 11)
Procedure: FIG. 11: Apoptosis Assay. Measurement of fragmented DNA as indicator for apoptosis after 5 days having applied CK666, Golgicide A, Rhosin, Bepridil, Heat shock protein inhibitor 1 (HIS-1) using the in vitro bead assay. Stautosporin serves as a positive control.
Met-5A cells were seeded on gelatin (Sigma Aldrich, #G1393) coated dishes. Once a confluent monolayer was established, stressed cell-covered beads were seeded onto the monolayer. For the inhibitory experiments, if not indicated otherwise, monolayer cells were pretreated with 10 μM of indicated compounds for 30 minutes in culture medium. After 24 h fragmented DNA was determined via Cell Death Detection […] (Sigma Aldrich, #11774425001).
as §1

Row | Compound | caspase3 activity (nanoluciferase activity of reporter) [1] | adhesion score (adhesion formation; single application of 10 nM in 2% cellulose, topical, 5 days after injury (FIG. 16)) | protrusion development in heliocytes [2] | transmissibility (Met-5A cells) | adhesion formation (adhesion score) (adhesion formation) | adhesion formation (carrier-carrier aggregation) [3] | fragmented DNA (indicator for apoptosis) [4] | initial desiccation-induced transmission (Met-5A cells; HIF-1α inhibition (FIG. 3G))
1 | CN[C@@H]1C[C@H]2O[C@@](C)([C@@H]1OC)n1c3ccccc3c3c4c(c5c6ccccc6n2c5c31)C(=O)NC4 [Staurosporine] | enhanced nanoluciferase activity | – | – | – | – | – | – | –
2 | CNc1ccc([N+](=O)[O-])c(Nc2ccc3[nH]ncc3c2)n1 [KRIBB11] | – | shows no effect | – | – | – | – | – | –
3 | Fc1cc(F)c2c(c1)C1C=CCC1C(c1cccnc1)N2 (stereo not drawn) [Golgicide A] | – | – | completely blocked | completely blocked | robustly inhibited adhesion formation | completely blocked | – | –
4 | Rhosin | higher caspase3 activity | – | completely blocked | completely blocked | robustly inhibited adhesion formation | completely blocked | significantly more fragmented DNA | –
5 | CS[C@H]1SC[C@H]2C(=O)N(C)[C@@H](C(C)C)C(=O)OC[C@@H](NC(=O)c3cnc4ccccc4n3)C(=O)N[C@@H](C)C(=O)N(C)[C@@H]1C(=O)N(C)[C@@H](C(C)C)C(=O)OC[C@@H](NC(=O)c1cnc3ccccc3n1)C(=O)N[C@@H](C)C(=O)N2C [echinomycin] | – | – | – | – | – | – | – | could be prevented
6 | CC(C)COCC(CN(Cc1ccccc1)c1ccccc1)N1CCCC1 (stereo not drawn) [Bepridil] | – | – | completely blocked | completely blocked | robustly inhibited adhesion formation | completely blocked | – | –
7 | Cc1[nH]c2ccccc2c1CCNC(=O)c1ccccc1F [CK-666] | – | – | completely blocked | completely blocked | robustly inhibited adhesion formation | completely blocked | – | –
